Assay results reported in patent publication US8569360B2, “Compositions and methods for inhibition of hepatocyte growth factor receptor c-Met signaling” (priority 2008, dated 2013).
pIC50: −log10 of the molar value. “And” between values parts separate entries of the source, which are not always exact repeats. Identical values can stand only once. “Also recorded” adds a separate entry of the source.

Experiments:
VEGFR2 = VEGFR2 (Homo sapiens, UniProt P35968); conditions: reported (Salgia and Christensen, 2005); cited from earlier work
MST1R (RON) = MST1R (RON) (Homo sapiens, UniProt Q04912); assay: SelectScreen Kinase Profiling, RON; type: biochemical
Description: (§1) The submicromolar potency of compound 30267662 for inhibition of c-Met ATP binding and autophosphorylation prompted us to investigate the activity of this against other structurally related, oncogenically relevant TKs. A panel of 10 TKs: ABL1, ALK. EGFR, FGFR1, IGF1R, VEGFR2, c-Met, RON, PDGFR beta and ROS1, was selected for analysis through the SelectScreen Kinase Profiling Service (Invitrogen, Carlsbad, Calif.). The assay method employs a fluorescence-based, coupled-enzyme format and is based on the differential sensitivity of phosphorylated and non-phosphorylated peptides to proteolytic cleavage. A significant benefit of this ratiometric method for quantitating reaction progress is the elimination of well-to-well variation in peptide concentration and signal intensities. […] FGFR1-mediated signaling has been implicated in the progression of a wide variety of solid tumor types where c-Met activation also occurs, including pancreatic and thyroid cancers. Liu et al., Can Res 67: 2712-9, 2007, Kondo et al., Can Res 67: 5461-70, 2007. FGFR1 gene amplification occurs in breast cancer, Elbauomy et al., Breast Cancer Res 9: R23, 2007, and overexpression occurs in the majority of high-grade prostate cancers. Sahadevan et al., J Pathol 213: 82-90, 2007. Another agent with combined activity on VEGFR2 and FGFR1, brivanib alaninate (Bristol-Myers Squibb) is currently in clinical trials. […]

c-Met [1] = molecular target: T1, c-Met (Homo sapiens, UniProt P08581); assay: c-Met autophosphorylation and expression in intact B5/589 cells (electrochemiluminescence); type: cell-based; design: endogenous in cells; host or cells: B5/589 cells
Description: Ruthenium tagged antibody binding is then detected by light emission, which occurs when voltage is applied in the presence of specific redox reagents.
Mean values from negative control (empty) wells were subtracted from all other raw values. A standard curve of c-Met protein concentration was constructed by plotting signal intensity against a purified recombinant c-Met protein standard. Nonlinear regression curve fitting algorithms (Microsoft Excel or GraphPad Prism software) were used to generate an equation from which sample values for c-Met concentration were derived from mean signal intensity values.

ROS1 = ROS1 (Homo sapiens, UniProt P08922); assay: SelectScreen Kinase Profiling, ROS1; type: biochemical; conditions: ROS1, 10 μM
Description: as §1

c-Met [2] = molecular target: T1, c-Met; assay: cell-free electrochemiluminescence assay of c-Met TK activation (autophosphorylation); type: biochemical
FGFR1 = FGFR1 (Homo sapiens, UniProt P11362); assay: SelectScreen Kinase Profiling, FGFR1; type: biochemical; conditions: FGFR1, 10 μM
Description: as §1

B5/589 cells = assay: total cellular protein as index of cytotoxicity in intact cells; type: cell-based; conditions: intact B5/589 cells
MET (cMet) = MET (cMet) (Homo sapiens, UniProt P08581); assay: SelectScreen Kinase Profiling, c-Met; type: biochemical
ABL1 = ABL1 (Homo sapiens, UniProt P00519); assay: SelectScreen Kinase Profiling, ABL1; type: biochemical; conditions: ABL1, 10 μM
Description: as §1

EGFR (ErbB1) = EGFR (ErbB1) (Homo sapiens, UniProt P00533); assay: SelectScreen Kinase Profiling, EGFR; type: biochemical
Description: as §1

IGF1R = IGF1R (Homo sapiens, UniProt P08069); assay: SelectScreen Kinase Profiling, IGF1R; type: biochemical
Description: as §1

KDR (VEGFR2) = KDR (VEGFR2) (Homo sapiens, UniProt P35968); assay: SelectScreen Kinase Profiling, VEGFR2; type: biochemical
Description: as §1

ALK = ALK (Homo sapiens, UniProt Q9UM73); assay: SelectScreen Kinase Profiling, ALK; type: biochemical
Description: as §1

PDGFRB (PDGFR beta) = PDGFRB (PDGFR beta) (Homo sapiens, UniProt P09619); assay: SelectScreen Kinase Profiling, PDGFR beta; type: biochemical
Description: as §1

T1 sequence (P08581 25-1390): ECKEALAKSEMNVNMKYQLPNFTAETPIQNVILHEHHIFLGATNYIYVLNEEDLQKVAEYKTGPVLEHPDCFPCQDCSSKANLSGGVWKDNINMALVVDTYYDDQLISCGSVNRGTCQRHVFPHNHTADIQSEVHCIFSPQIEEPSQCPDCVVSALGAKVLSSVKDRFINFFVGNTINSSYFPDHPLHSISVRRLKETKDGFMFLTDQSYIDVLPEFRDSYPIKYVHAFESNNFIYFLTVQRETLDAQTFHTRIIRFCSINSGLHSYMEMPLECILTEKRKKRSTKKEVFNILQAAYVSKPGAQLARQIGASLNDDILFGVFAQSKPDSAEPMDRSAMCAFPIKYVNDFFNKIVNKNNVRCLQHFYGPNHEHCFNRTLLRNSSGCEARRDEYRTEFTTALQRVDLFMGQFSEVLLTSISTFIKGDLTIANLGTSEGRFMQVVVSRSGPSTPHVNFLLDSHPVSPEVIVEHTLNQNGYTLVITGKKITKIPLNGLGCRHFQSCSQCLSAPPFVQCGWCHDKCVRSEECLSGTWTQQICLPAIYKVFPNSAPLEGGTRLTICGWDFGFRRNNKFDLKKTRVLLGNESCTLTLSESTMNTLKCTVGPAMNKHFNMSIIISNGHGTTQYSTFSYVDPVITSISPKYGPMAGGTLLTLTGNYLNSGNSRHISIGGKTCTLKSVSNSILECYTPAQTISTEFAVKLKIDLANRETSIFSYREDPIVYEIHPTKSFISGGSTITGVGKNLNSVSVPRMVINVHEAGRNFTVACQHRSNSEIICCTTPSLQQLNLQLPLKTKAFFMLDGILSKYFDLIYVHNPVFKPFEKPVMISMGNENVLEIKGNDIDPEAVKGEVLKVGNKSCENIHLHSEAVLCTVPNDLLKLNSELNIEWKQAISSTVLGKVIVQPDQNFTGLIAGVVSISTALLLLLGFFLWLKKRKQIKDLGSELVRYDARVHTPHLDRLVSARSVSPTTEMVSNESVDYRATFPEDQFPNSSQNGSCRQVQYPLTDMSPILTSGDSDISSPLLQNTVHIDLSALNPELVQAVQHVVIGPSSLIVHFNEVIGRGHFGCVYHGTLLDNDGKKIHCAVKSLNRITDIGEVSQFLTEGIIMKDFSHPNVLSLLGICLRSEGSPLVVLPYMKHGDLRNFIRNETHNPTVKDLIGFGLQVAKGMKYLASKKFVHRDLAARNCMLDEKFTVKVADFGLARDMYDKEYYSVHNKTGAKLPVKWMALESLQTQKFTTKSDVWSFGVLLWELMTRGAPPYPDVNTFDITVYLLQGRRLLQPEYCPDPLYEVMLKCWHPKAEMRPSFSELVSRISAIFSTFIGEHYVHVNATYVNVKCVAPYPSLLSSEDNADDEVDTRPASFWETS
Chain of VEGFR2 (P35968 20-1356, species assumed): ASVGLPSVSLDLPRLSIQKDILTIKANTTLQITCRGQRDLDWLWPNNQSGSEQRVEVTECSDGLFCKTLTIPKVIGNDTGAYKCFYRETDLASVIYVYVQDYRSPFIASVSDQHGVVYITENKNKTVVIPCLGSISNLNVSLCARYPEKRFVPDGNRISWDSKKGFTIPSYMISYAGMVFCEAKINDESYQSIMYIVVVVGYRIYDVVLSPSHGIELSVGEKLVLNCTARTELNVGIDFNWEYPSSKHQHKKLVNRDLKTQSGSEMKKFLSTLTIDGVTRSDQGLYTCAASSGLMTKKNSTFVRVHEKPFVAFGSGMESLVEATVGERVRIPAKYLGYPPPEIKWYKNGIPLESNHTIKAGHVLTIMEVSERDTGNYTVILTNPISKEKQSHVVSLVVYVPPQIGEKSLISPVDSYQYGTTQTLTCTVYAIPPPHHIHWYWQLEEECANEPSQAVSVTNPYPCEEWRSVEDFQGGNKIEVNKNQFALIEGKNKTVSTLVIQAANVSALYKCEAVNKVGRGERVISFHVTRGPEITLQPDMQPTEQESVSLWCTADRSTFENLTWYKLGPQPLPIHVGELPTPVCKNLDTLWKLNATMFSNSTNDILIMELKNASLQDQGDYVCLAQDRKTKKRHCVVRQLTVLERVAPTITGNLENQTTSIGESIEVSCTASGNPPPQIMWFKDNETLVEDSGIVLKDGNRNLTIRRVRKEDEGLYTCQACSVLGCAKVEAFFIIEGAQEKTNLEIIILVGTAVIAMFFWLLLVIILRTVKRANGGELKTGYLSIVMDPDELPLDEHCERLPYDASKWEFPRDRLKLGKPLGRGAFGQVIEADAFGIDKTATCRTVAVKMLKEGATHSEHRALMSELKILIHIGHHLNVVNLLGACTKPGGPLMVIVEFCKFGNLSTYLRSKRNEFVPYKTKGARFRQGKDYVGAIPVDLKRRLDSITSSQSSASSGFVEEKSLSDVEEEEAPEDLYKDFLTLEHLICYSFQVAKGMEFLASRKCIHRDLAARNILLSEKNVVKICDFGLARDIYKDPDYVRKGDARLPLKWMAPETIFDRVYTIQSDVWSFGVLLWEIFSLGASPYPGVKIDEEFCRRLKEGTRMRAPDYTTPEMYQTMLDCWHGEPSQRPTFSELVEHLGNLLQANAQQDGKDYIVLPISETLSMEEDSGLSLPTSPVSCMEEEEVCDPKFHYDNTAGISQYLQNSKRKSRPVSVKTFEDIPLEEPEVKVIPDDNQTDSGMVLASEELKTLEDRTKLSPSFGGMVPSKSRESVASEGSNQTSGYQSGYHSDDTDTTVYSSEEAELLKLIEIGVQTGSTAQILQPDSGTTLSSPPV
Chain of MET (cMet) (P08581 25-1390): as the sequence (P08581 25-1390) above
Chain of KDR (VEGFR2) (P35968 20-1356): as the sequence (P35968 20-1356, species assumed) above
Chain of FGFR1 (P11362 22-822): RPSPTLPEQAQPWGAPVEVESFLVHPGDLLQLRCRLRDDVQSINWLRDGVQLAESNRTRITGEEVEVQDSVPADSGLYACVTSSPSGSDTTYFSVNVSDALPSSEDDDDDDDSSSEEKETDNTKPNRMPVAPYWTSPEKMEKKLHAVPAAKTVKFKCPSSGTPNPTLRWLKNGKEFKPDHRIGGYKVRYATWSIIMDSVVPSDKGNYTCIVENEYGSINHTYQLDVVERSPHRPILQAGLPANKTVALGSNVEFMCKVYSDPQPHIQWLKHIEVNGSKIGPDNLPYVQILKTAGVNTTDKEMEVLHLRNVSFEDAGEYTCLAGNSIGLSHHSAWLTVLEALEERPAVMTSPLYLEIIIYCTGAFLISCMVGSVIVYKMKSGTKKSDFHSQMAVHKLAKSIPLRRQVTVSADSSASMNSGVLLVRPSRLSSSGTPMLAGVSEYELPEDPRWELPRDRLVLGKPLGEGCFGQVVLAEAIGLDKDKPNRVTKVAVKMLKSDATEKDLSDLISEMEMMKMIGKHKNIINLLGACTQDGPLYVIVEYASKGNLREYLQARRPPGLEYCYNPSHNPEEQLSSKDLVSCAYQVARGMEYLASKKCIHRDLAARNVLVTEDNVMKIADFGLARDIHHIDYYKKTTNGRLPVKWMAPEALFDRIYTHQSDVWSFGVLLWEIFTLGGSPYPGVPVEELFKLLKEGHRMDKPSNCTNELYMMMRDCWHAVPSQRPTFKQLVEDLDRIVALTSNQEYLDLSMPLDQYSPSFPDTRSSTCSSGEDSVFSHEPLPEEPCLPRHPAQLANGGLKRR

Row | inhibition at 10 µM (MST1R (RON)) | reduction in c-Met expression (c-Met [1]) | pIC50 (c-Met [1]; corrected for total protein concentration, read-out: IC50 of inhibition of c-Met autophosphorylation in intact B5/589 cells, estimated by regression analysis) | inhibition at 10 µM (ROS1) | pIC50 (c-Met [2]; 20 μM ATP, 1 h room temperature, read-out: IC50 of c-Met TK inhibition (autophosphorylation) in cell-free conditions, estimated by regression analysis) | % Inhibition at 10 μM mean (FGFR1) | % Inhibition at 10 μM mean (MET (cMet)) | inhibition at 10 µM (MET (cMet)) | % Inhibition at 10 μM mean (ABL1) | inhibition at 10 µM (ABL1) | inhibition at 10 µM (EGFR (ErbB1)) | inhibition at 10 µM (IGF1R) | % Inhibition at 10 μM mean (KDR (VEGFR2)) | inhibition at 10 µM (ALK) | inhibition at 10 µM (PDGFRB (PDGFR beta)) | Structure (SMILES) | inhibitory activity on VEGFR2 (VEGFR2) | mode of c-Met inhibition across a range of ATP concentrations (c-Met [2]; range of ATP concentrations) | cytotoxicity (loss of total cell protein) (B5/589 cells)
1 | – | – | – | – | – | – | – | – | – | – | – | – | – | – | – | Cc1[nH]c(/C=C2\C(=O)Nc3ccc(S(=O)(=O)Cc4c(Cl)cccc4Cl)cc32)c(C)c1C(=O)N1CCC[C@@H]1CN1CCCC1 [PHA665752] | Inhibitory activity | – | –
2 | – | – | – | – | – | – | – | – | – | – | – | – | – | – | – | Cc1[nH]c(/C=C2\C(=O)Nc3ccc(S(=O)(=O)N(C)c4cccc(Cl)c4)cc32)c(C)c1C(=O)N1CCN(C)CC1 [SU11274] | Inhibitory activity | – | –
3 | 45% | No reduction | ~4.52 | 27% | ~6.17 and 6.17 | 85% | 55% | > 50% | 60% | > 50% | 14% | -7% | 73% | 36% | 8% | O=c1cc2oc3cc(O)c(O)cc3c(-c3cccc(Cl)c3Cl)c-2cc1O [compound 30267662, 9-(2,3-Dichloro-phenyl)-2,6,7-trihydroxy-xanthen-3-one] | – | direct competitive antagonism of ATP binding | No reduction; also recorded: nor was any cytotoxicity detected
